Reference: patent US6355799B1, “Substituted benzene compounds, process for their preparation, and herbicidal and defoliant compositions containing them” (ISK Americas Incorporated, priority 1997, dated 2002)

Key:
Type in all cases: in vivo
[1] = system: lambsquarters (Chenopodium album, CHEAL); assay: Post-emerge test, greenhouse herbicide activity screening; settings: post-emerge; for phytotoxicity rating CHEAL: 14 days after application, rating scale 0-100; for Post-emerge Herbicidal Activity CHEAL: phytotoxicity rating 0-100 at 14 days after application
How it was run: (§1)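 Compounds in acetone were track-sprayed at 15–1000 g ai/ha: pre-emergence onto soil sown the previous day, then top-watered to incorporate and later bottom-watered; post-emergence onto 2–3 leaf plants with 0.25% v/v surfactant, bottom-watered only. Ratings on a 0–100 phytotoxicity scale were taken at day 14.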

[2] = system: barnyardgrass (Echinochloa crus-galli, ECHCG); assay: as above; settings: post-emerge; for phytotoxicity rating ECHCG: 14 days after application, rating scale 0-100; for Post-emerge Herbicidal Activity ECHCG: phytotoxicity rating 0-100 at 14 days after application
How it was run: as §1

[3] = system: ivyleaf morningglory (Ipomoea hederacea, IPOHE); assay: as above; settings: post-emerge; for phytotoxicity rating IPOHE: 14 days after application, rating scale 0-100; for Post-emerge Herbicidal Activity IPOHE: phytotoxicity rating 0-100 at 14 days after application
How it was run: as §1

[4] = system: velvetleaf (Abutilon theophrasti, ABUTH); assay: as above; settings: post-emerge; for phytotoxicity rating ABUTH: 14 days after application, rating scale 0-100; for Post-emerge Herbicidal Activity ABUTH: phytotoxicity rating 0-100 at 14 days after application
How it was run: as §1

[5] = system: green foxtail (Setaria viridis, SETVI); assay: as above; settings: post-emerge; for phytotoxicity rating SETVI: 14 days after application, rating scale 0-100; for Post-emerge Herbicidal Activity SETVI: phytotoxicity rating 0-100 at 14 days after application
How it was run: as §1

[6] = system: redroot pigweed (Amaranthus retroflexus, AMARE); assay: as above; settings: post-emerge; for phytotoxicity rating AMARE: 14 days after application; for Post-emerge Herbicidal Activity AMARE: phytotoxicity rating 0-100 at 14 days after application
How it was run: as §1

[7] = system: johnsongrass (Sorghum halepense, SORHA); assay: as above; settings: post-emerge; for phytotoxicity rating SORHA: 14 days after application, rating scale 0-100; for Post-emerge Herbicidal Activity SORHA: phytotoxicity rating 0-100 at 14 days after application
How it was run: as §1

[8] = system: sicklepod (Cassia obtusifolia, CASOB); assay: as above; settings: post-emerge; for phytotoxicity rating CASOB: 14 days after application, rating scale 0-100; for Post-emerge Herbicidal Activity CASOB: phytotoxicity rating 0-100 at 14 days after application
How it was run: as §1

[9] = system: large crabgrass (Digitaria sanguinalis, DIGSA); assay: as above; settings: post-emerge; for phytotoxicity rating DIGSA: 14 days after application, rating scale 0-100; for Post-emerge Herbicidal Activity DIGSA: phytotoxicity rating 0-100 at 14 days after application
How it was run: as §1

[10] = system: upland rice (Oryza sp., var. Tebonnet, RICE); assay: Pre-emerge test, crop safety
How it was run: (§2)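 Compounds in acetone were track-sprayed at 15-1000 g ai/ha (187 l/ha) on sandy loam pots: pre-emerge one day after seeding, post-emerge at 2-3 leaf stage with 0.25% v/v non-ionic surfactant. Phytotoxicity was rated 14 days later on a 0 (no damage) to 100 (complete death) scale.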

[11] = system: field corn (Zea mays L., var. Dekalb 535, CORN); assay: Pre-emerge test, crop safety
How it was run: as §2

[12] = system: lambsquarters (Chenopodium album, CHEAL); assay: Pre-emerge test, greenhouse herbicide activity screening
How it was run: (§3)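 Herbicidal damage is scored 0 (none) to 100 (complete plant death) two weeks after a simulated field spray. Rates span 15–1000 g ai/ha, delivered in acetone at 187 l/ha. For post-emergence treatments, plants have 2–3 leaves and the spray carries 0.25% v/v non-ionic surfactant.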

[13] = system: barnyardgrass (Echinochloa crus-galli, ECHCG); assay: as above
How it was run: as §3

[14] = system: ivyleaf morningglory (Ipomoea hederacea, IPOHE); assay: as above
How it was run: as §3

[15] = system: velvetleaf (Abutilon theophrasti, ABUTH); assay: as above
How it was run: as §3

[16] = system: green foxtail (Setaria viridis, SETVI); assay: as above
How it was run: as §3

[17] = system: johnsongrass (Sorghum halepense, SORHA); assay: as above
How it was run: as §3

[18] = system: sicklepod (Cassia obtusifolia, CASOB); assay: as above
How it was run: as §3

[19] = system: common ragweed (Ambrosia artemisizfolia L., AMBEL); assay: as above
How it was run: as §3

[20] = system: large crabgrass (Digitaria sanguinalis, DIGSA); assay: as above
How it was run: as §3

[21] = system: upland rice (Oryza sp., var. Tebonnet, RICE); assay: Post-emerge test, crop safety; settings: post-emerge; for phytotoxicity rating RICE (crop damage): 14 days after application, rating scale 0-100; for Post-emerge Herbicidal Activity RICE: crop damage rating 0-100 at 14 days after application
How it was run: as §3

[22] = system: field corn (Zea mays L., var. Dekalb 535, CORN); assay: Post-emerge test, crop safety; settings: post-emerge; for phytotoxicity rating CORN (crop damage): 14 days after application, rating scale 0-100; for Post-emerge Herbicidal Activity CORN: crop damage rating 0-100 at 14 days after application
How it was run: as §3

[23] = system: redroot pigweed (Amaranthus retroflexus, AMARE); assay: Pre-emerge test, greenhouse herbicide activity screening
How it was run: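 Sandy loam pots; pre-emerge: sown 1 d pre-spray, surface-watered after, then bottom-watered. Post-emerge: sown 8–21 d before, 2–3 leaf stage, + 0.25% v/v NIS, bottom-watered. Acetone, 187 l/ha track spray, 15–1000 g ai/ha. 0–100 injury score, day 14.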

[24] = 63 g ai/ha, crop damage rating 0-100, 14 days after application
[25] = 250 g ai/ha, crop damage rating 0-100, 14 days after application
[26] = 63 g ai/ha, phytotoxicity rating 0-100, 14 days after application
[27] = 250 g ai/ha, phytotoxicity rating 0-100, 14 days after application
[28] = crop damage, pre-emerge, rate 63 g ai/ha, phytotoxicity rating 0-100 at 14 days after application
[29] = crop damage, pre-emerge, rate 250 g ai/ha, phytotoxicity rating 0-100 at 14 days after application
[30] = pre-emerge, rate 63 g ai/ha, phytotoxicity rating 0-100 at 14 days after application
[31] = pre-emerge, rate 250 g ai/ha, phytotoxicity rating 0-100 at 14 days after application

Q: Which results are given for `Cn1c(C(F)(F)F)cc(=O)n(-c2ccc(Cl)cc2NC(=O)OCc2ccccc2F)c1=O` [4-49]?
A: phytotoxicity rating CHEAL ([1]; 63 g ai/ha): 100; phytotoxicity rating CHEAL ([1]; 250 g ai/ha): 100; phytotoxicity rating ECHCG ([2]; 63 g ai/ha): 10; phytotoxicity rating ECHCG ([2]; 250 g ai/ha): 10; phytotoxicity rating IPOHE ([3]; 63 g ai/ha): 80; phytotoxicity rating IPOHE ([3]; 250 g ai/ha): 100; phytotoxicity rating ABUTH ([4]; 63 g ai/ha): 100; phytotoxicity rating ABUTH ([4]; 250 g ai/ha): 100; phytotoxicity rating SETVI ([5]; 63 g ai/ha): 30; phytotoxicity rating SETVI ([5]; 250 g ai/ha): 30; phytotoxicity rating AMARE ([6]; 63 g ai/ha, rating scale 0-100 (0 no damage, 100 complete death)): 100; phytotoxicity rating AMARE ([6]; 250 g ai/ha, rating scale 0-100): 100; phytotoxicity rating SORHA ([7]; 63 g ai/ha): 0; phytotoxicity rating SORHA ([7]; 250 g ai/ha): 10; phytotoxicity rating CASOB ([8]; 63 g ai/ha): 80; phytotoxicity rating CASOB ([8]; 250 g ai/ha): 100; phytotoxicity rating DIGSA ([9]; 63 g ai/ha): 10; phytotoxicity rating DIGSA ([9]; 250 g ai/ha): 10; Pre-emerge Herbicidal Activity RICE [10, 24]: 30; Pre-emerge Herbicidal Activity RICE [10, 25]: 25; Pre-emerge Herbicidal Activity CORN [11, 24]: 0; Pre-emerge Herbicidal Activity CORN [11, 25]: 15; Pre-emerge Herbicidal Activity CHEAL [12, 26]: 100; Pre-emerge Herbicidal Activity CHEAL [12, 27]: 100; Pre-emerge Herbicidal Activity ECHCG [13, 26]: 10; Pre-emerge Herbicidal Activity ECHCG [13, 27]: 75; Pre-emerge Herbicidal Activity IPOHE [14, 26]: 40; Pre-emerge Herbicidal Activity IPOHE [14, 27]: 100; Pre-emerge Herbicidal Activity ABUTH [15, 26]: 95; Pre-emerge Herbicidal Activity ABUTH [15, 27]: 100; Pre-emerge Herbicidal Activity SETVI [16, 26]: 70; Pre-emerge Herbicidal Activity SETVI [16, 27]: 100; Pre-emerge Herbicidal Activity SORHA [17, 26]: 50; Pre-emerge Herbicidal Activity SORHA [17, 27]: 90; Pre-emerge Herbicidal Activity CASOB [18, 26]: 30; Pre-emerge Herbicidal Activity CASOB [18, 27]: 60; Pre-emerge Herbicidal Activity AMBEL [19, 26]: 80; Pre-emerge Herbicidal Activity AMBEL [19, 27]: 60; Pre-emerge Herbicidal Activity DIGSA [20, 26]: 70; Pre-emerge Herbicidal Activity DIGSA [20, 27]: 100; phytotoxicity rating RICE (crop damage) ([21]; 63 g ai/ha): 10; phytotoxicity rating RICE (crop damage) ([21]; 250 g ai/ha): 70; phytotoxicity rating CORN (crop damage) ([22]; 63 g ai/ha): 20; phytotoxicity rating CORN (crop damage) ([22]; 250 g ai/ha): 80; Pre-emerge Herbicidal Activity AMARE [23, 26]: 100; Pre-emerge Herbicidal Activity AMARE [23, 27]: 100

Q: What does the source list for `COc1c(Cl)cc(F)c(-n2ncc(C(F)(F)F)c(C)c2=O)c1NC(=O)c1ccc2ccccc2c1` [11-13]?
A: Post-emerge Herbicidal Activity CHEAL ([1]; 63 g ai/ha): 100; Post-emerge Herbicidal Activity CHEAL ([1]; 250 g ai/ha): 100; Post-emerge Herbicidal Activity ECHCG ([2]; 63 g ai/ha): 65; Post-emerge Herbicidal Activity ECHCG ([2]; 250 g ai/ha): 55; Post-emerge Herbicidal Activity IPOHE ([3]; 63 g ai/ha): 98; Post-emerge Herbicidal Activity IPOHE ([3]; 250 g ai/ha): 98; Post-emerge Herbicidal Activity ABUTH ([4]; 63 g ai/ha): 95; Post-emerge Herbicidal Activity ABUTH ([4]; 250 g ai/ha): 100; Post-emerge Herbicidal Activity SETVI ([5]; 63 g ai/ha): 55; Post-emerge Herbicidal Activity SETVI ([5]; 250 g ai/ha): 40; Post-emerge Herbicidal Activity AMARE ([6]; 63 g ai/ha): 100; Post-emerge Herbicidal Activity AMARE ([6]; 250 g ai/ha): 100; Post-emerge Herbicidal Activity SORHA ([7]; 63 g ai/ha): 0; Post-emerge Herbicidal Activity SORHA ([7]; 250 g ai/ha): 15; Post-emerge Herbicidal Activity CASOB ([8]; 63 g ai/ha): 85; Post-emerge Herbicidal Activity CASOB ([8]; 250 g ai/ha): 85; Post-emerge Herbicidal Activity DIGSA ([9]; 63 g ai/ha): 40; Post-emerge Herbicidal Activity DIGSA ([9]; 250 g ai/ha): 60; Pre-emerge Herbicidal Activity RICE [10, 28]: 0; Pre-emerge Herbicidal Activity RICE [10, 29]: 15; Pre-emerge Herbicidal Activity CORN [11, 28]: 0; Pre-emerge Herbicidal Activity CORN [11, 29]: 0; Pre-emerge Herbicidal Activity CHEAL [12, 30]: 100; Pre-emerge Herbicidal Activity CHEAL [12, 31]: 100; Pre-emerge Herbicidal Activity ECHCG [13, 30]: 30; Pre-emerge Herbicidal Activity ECHCG [13, 31]: 80; Pre-emerge Herbicidal Activity IPOHE [14, 30]: 65; Pre-emerge Herbicidal Activity IPOHE [14, 31]: 80; Pre-emerge Herbicidal Activity ABUTH [15, 30]: 95; Pre-emerge Herbicidal Activity ABUTH [15, 31]: 100; Pre-emerge Herbicidal Activity SETVI [16, 30]: 70; Pre-emerge Herbicidal Activity SETVI [16, 31]: 100; Pre-emerge Herbicidal Activity SORHA [17, 30]: 0; Pre-emerge Herbicidal Activity SORHA [17, 31]: 40; Pre-emerge Herbicidal Activity CASOB [18, 30]: 0; Pre-emerge Herbicidal Activity CASOB [18, 31]: 85; Pre-emerge Herbicidal Activity AMBEL [19, 30]: 30; Pre-emerge Herbicidal Activity AMBEL [19, 31]: 60; Pre-emerge Herbicidal Activity DIGSA [20, 30]: 60; Pre-emerge Herbicidal Activity DIGSA [20, 31]: 100; Post-emerge Herbicidal Activity RICE ([21]; 63 g ai/ha): 45; Post-emerge Herbicidal Activity RICE ([21]; 250 g ai/ha): 65; Post-emerge Herbicidal Activity CORN ([22]; 63 g ai/ha): 45; Post-emerge Herbicidal Activity CORN ([22]; 250 g ai/ha): 45; Pre-emerge Herbicidal Activity AMARE [23, 30]: 100; Pre-emerge Herbicidal Activity AMARE [23, 31]: 10
